Test results reported in patent publication US11407783B2, “Triptolide derivative and preparation method therefor and use thereof” (priority 2018, dated 2022).
Read-outs that look alike come from different tables or passages of the source.

Key:
[1] = system: mouse T lymphocytes induced by ConA; assay: In vitro immunosuppressive activity, spleen lymphocyte proliferation (3H-thymidine), ConA-induced; assay type: cell-based, BALB/c mice; settings: read-out: IC50 (μM) mouse T lymphocytes induced by ConA
Procedure: (§1) Preparation of Mouse Spleen Lymphocyte
(§2) BALB/c mice were sacrificed by spinal dislocation, and their spleen was aseptically taken out. A single cell suspension was prepared and adjusted to the required concentration.
(§3) A suspension of 4×10^6 cells/ml spleen lymphocytes was routinely prepared and 100 μL of cells was added into each well of a 96-well plate. 50 μL test sample in different concentrations was added and ConA (final concentration 5 μg/mL) was added to induce T lymphocyte activation and proliferation, or LPS (final concentration 10 μg/mL) (50 μL) was added to induce B lymphocyte activation and proliferation. The corresponding positive control and non-stimulating background control were set. The cells were cultured in 37° C., 5% CO2 incubator for 48 h. 0.25 μCi ^3H-thymidine was introduced and the cultivation was completed after 8 h. At the end of the cultivation, the culture plate was frozen at −20° C. in a freezer until measurement. The cells were collected on a glass fiber membrane with a cell harvester and then scintillation solution was added. The amount of ^3H-thymine nucleotides incorporated into the cells' DNA was read on a Beta counter. The cell proliferation was represented by the cpm value.

[2] = system: PC-3 (human prostate cancer cell); assay: In vitro antitumor activity, CellTiter-Glo cell viability, 48 h; assay type: cell-based; settings: read-out: Relative IC50 (μM) PC-3
Procedure: (§4) Tumor cells included AsPC-1 (human pancreatic cancer cell), PC-3 (human prostate cancer cell), and SK-OV-3 (human ovarian cancer cell).
(§5) Triptolide was used as a positive control; the working concentrations of the test drug were 1 μM, 0.33 μM, 0.11 μM, […], 0.012 μM, 0.004 μM, 1.4 nM, and 0.46 nM. After the tumor cells were revived, they were resuspended in the corresponding complete medium, placed in 5% CO2, and cultured at 37° C. The tumor cells at the logarithmic growth stage were suspended in the corresponding complete medium to adjust the cell concentration. 90 μL of cell suspension was added into each well. The cells were incubated at 37° C. in 5% CO2 overnight. Each concentration of the test drug was added and the cells were further cultured for 48 hours. Finally. Promega CellTiter-Glo Luminescent Cell Viability Assay Kit was used for detection.

[3] = system: SK-OV-3 (human ovarian cancer cell); assay: as above; assay type: cell-based; settings: read-out: Relative IC50 (μM) SK-OV-3
Procedure: as §4, §5

[4] = system: AsPC-1 (human pancreatic cancer cell); assay: as above; assay type: cell-based; settings: read-out: Relative IC50 (μM) AsPC-1
Procedure: as §4, §5

[5] = system: mouse B lymphocytes induced by LPS; assay: In vitro immunosuppressive activity, spleen lymphocyte proliferation (3H-thymidine), LPS-induced; assay type: cell-based, BALB/c mice; settings: read-out: IC50 (μM) mouse B lymphocytes induced by LPS
Procedure: as §1, §2, §3

[6] = Body weight, mortality and toxicity in AsPC-1 tumor-bearing nude mice; assay type: in vivo, male nude mice; settings: emulsions
Procedure: Human pancreatic cancer cell AsPC-1 was subcutaneously inoculated on the right abdominal side of male nude mice. Tumor-bearing mice were randomly divided into 5 groups: negative control group (Control, n=8, blank emulsion, i.p./i.v., qd); Triptolide group (Triptolide, n=8, 0.25 mg/kg, i.v., qd); positive control group (Gemcitabine, n=8, 50 mg/kg, i.p., tiw); CK21S-005 emulsion group (CK21S-005 emulsion, n=8, 5 mg/kg, i.p./i.v., qd); and CK21S-005 emulsion group (CK21S-005 emulsion, n=8, 2.5 mg/kg, i.p./i.v., qd). Mice were administered in groups until the end of the experiment. The changes in tumor size and tumor-bearing mouse weight over time were monitored during the 2-week administration period, and tumors were weighed at the end of the experiment to comprehensively evaluate the inhibitory effect of the drug CK21S-005 on tumor growth.
The preparation method of the emulsion was as follows. A prescribed amount of injection oil was weighed and heated to 70-90° C. A prescribed amount of raw material was weighed, dispersed in the oil phase and completely dissolved under shear-stirring to form an oil phase. A prescribed amount of injection water was weighed and heated to 70° C. A prescribed amount of phospholipid, co-emulsifier, glycerin, etc. were added and dispersed under shear to form an aqueous phase. […]

[7] = ConA 5 μg/mL, 48 h, 3H-thymidine
[8] = SK-OV-3, 48 hours, CellTiter-Glo
[9] = ASPC1, AsPC-1, 48 hours, CellTiter-Glo
[10] = LPS 10 μg/mL, 48 h, 3H-thymidine

Compound	IC50 [1] [µM]	IC50 ([2]; 48 h) [µM]	IC50 ([3]; SK-OV-3, 48 h) [µM]	IC50 ([4]; ASPC1, 48 h) [µM]	IC50 [5] [µM]	IC50 [1, 7] [µM]	IC50 ([2]; PC-3, 48 hours, CellTiter-Glo) [µM]	IC50 [3, 8] [µM]	IC50 [4, 9] [µM]	IC50 [5, 10] [µM]	Safety compared with triptolide [6]
CC(C)[C@]12O[C@H]1[C@@H]1O[C@]13[C@]1(O[C@H]1C[C@H]1C4=C(CC[C@@]13C)C(=O)O/C4=C(/OC(=O)c1ccco1)c1ccccc1)[C@@H]2OC(=O)OC(C)(C)C [CK21S-001-b]	0.011	0.029	0.048	0.03	0.01						
CC(C)[C@]12O[C@H]1[C@@H]1O[C@]13[C@]1(O[C@H]1C[C@H]1C4=C(CC[C@@]13C)C(=O)O/C4=C(/OC(=O)c1ccco1)c1ccccc1)[C@@H]2O [CK21S-001]						0.008	0.022	0.042	0.028	0.006	
COc1ccc(C(=O)O/C(=C2/OC(=O)C3=C2[C@@H]2C[C@@H]4O[C@@]45[C@H](OC(=O)OC(C)(C)C)[C@@]4(C(C)C)O[C@H]4[C@@H]4O[C@@]45[C@@]2(C)CC3)c2ccc(OC)cc2)cc1 [CK21S-002-b]	0.012	0.042	0.057	0.042	0.01						
COc1ccc(C(=O)O/C(=C2/OC(=O)C3=C2[C@@H]2C[C@@H]4O[C@@]45[C@H](O)[C@@]4(C(C)C)O[C@H]4[C@@H]4O[C@@]45[C@@]2(C)CC3)c2ccc(OC)cc2)cc1 [CK21S-002]						0.021	0.056	0.07	0.071	0.02	
CC(C)[C@]12O[C@H]1[C@@H]1O[C@]13[C@]1(O[C@H]1C[C@H]1C4=C(CC[C@@]13C)C(=O)O/C4=C(/OC(=O)c1ccc(C(F)(F)F)cc1)c1ccc(C(F)(F)F)cc1)[C@@H]2OC(=O)OC(C)(C)C [CK21S-003-b]	0.006	0.021	0.029	0.02	0.005						
CC(C)[C@]12O[C@H]1[C@@H]1O[C@]13[C@]1(O[C@H]1C[C@H]1C4=C(CC[C@@]13C)C(=O)O/C4=C(/OC(=O)c1ccc(C(F)(F)F)cc1)c1ccc(C(F)(F)F)cc1)[C@@H]2O [CK21S-003]						0.006	0.018	0.028	0.014	0.004	
CC(C)[C@]12O[C@H]1[C@@H]1O[C@]13[C@]1(O[C@H]1C[C@H]1C4=C(CC[C@@]13C)C(=O)O/C4=C(/OC(=O)c1ccco1)c1ccco1)[C@@H]2OC(=O)OC(C)(C)C [CK21S-004-b]	0.03	0.045	0.129	0.096	0.025						
CC(C)[C@]12O[C@H]1[C@@H]1O[C@]13[C@]1(O[C@H]1C[C@H]1C4=C(CC[C@@]13C)C(=O)O/C4=C(/OC(=O)c1ccco1)c1ccco1)[C@@H]2O [CK21S-004]						0.012	0.023	0.118	0.038	0.009	
CC(C)[C@]12O[C@H]1[C@@H]1O[C@]13[C@]1(O[C@H]1C[C@H]1C4=C(CC[C@@]13C)C(=O)O/C4=C(/OC(=O)c1ccccc1)c1ccccc1)[C@@H]2OC(=O)OC(C)(C)C [CK21S-005-b]						0.011	0.035	0.04	0.042	0.009	
CC(C)[C@]12O[C@H]1[C@@H]1O[C@]13[C@]1(O[C@H]1C[C@H]1C4=C(CC[C@@]13C)C(=O)O/C4=C(/OC(=O)c1ccccc1)c1ccccc1)[C@@H]2O [CK21S-005]	0.012	0.03	0.041	0.04	0.01						better than that of triptolide
CC(C)[C@]12O[C@H]1[C@@H]1O[C@]13[C@]1(O[C@H]1C[C@H]1C4=C(CC[C@@]13C)C(=O)O/C4=C(/OC(=O)C1CCCCC1)c1ccccc1)[C@@H]2OC(=O)OC(C)(C)C [CK21S-006-b]	0.016	0.034	0.045	0.036	0.015						
CC(C)[C@]12O[C@H]1[C@@H]1O[C@]13[C@]1(O[C@H]1C[C@H]1C4=C(CC[C@@]13C)C(=O)O/C4=C(/OC(=O)C1CCCCC1)c1ccccc1)[C@@H]2O [CK21S-006]						0.01	0.031	0.041	0.035	0.008	
CC(C)[C@]12O[C@H]1[C@@H]1O[C@@]13[C@@]1(C)CCC4=C(/C(=C(\OC(=O)c5ccccc5)c5ccccc5)OC4=O)[C@@H]1C[C@@H]1O[C@@]13C2=O [CK21S-007]						0.015	0.043	0.05	0.049	0.017	
CC(C)[C@]12O[C@H]1[C@@H]1O[C@@]13[C@@]1(C)CCC4=C(/C(=C(\OC(=O)c5ccccc5)c5ccccc5)OC4=O)[C@@H]1C[C@@H]1O[C@@]13C2F (stereo partly drawn) [CK21S-008]						0.01	0.03	0.038	0.035	0.009	
CC(C)[C@]12O[C@H]1[C@@H]1O[C@]13[C@]1(O[C@H]1C[C@H]1C4=C(CC[C@@]13C)C(=O)O/C4=C(/OC(=O)c1ccccc1)c1ccccc1)[C@@H]2OCOP(=O)(O)O [CK21S-009]						0.008	0.027	0.032	0.03	0.008	
CC(C)[C@]12O[C@H]1[C@@H]1O[C@]13[C@]1(O[C@H]1C[C@H]1C4=C(CC[C@@]13C)C(=O)OC4)[C@@H]2O [Triptolide, triptolide]						0.005	0.014	0.016	0.014	0.004	
